# Assay results as given in ChEMBL document CHEMBL1201862, “PubChem BioAssay data set” (2004).
# Calls of active or inactive are those of the source.
# Experiments:
# HEK293 [1] = assay: optical interference in Abeta FP readout, dose response, artefact control for IDE activator project, biochemical, fluorescence polarization (AID 588442); assay type: functional, cell-based; conditions: Homo sapiens
# HEK293 [2] = assay: membrane integrity loss in HEK cells – cell-based, fluorescence, cytotoxicity control for IDE activator project, dose response (AID 588440); assay type: functional; conditions: Homo sapiens;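 further: cytotoxicity by LDH release measuring loss of membrane integrity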
# [3] = biological target: Photoreceptor-specific nuclear receptor (Homo sapiens, UniProt Q9Y5X4); assay type: functional;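 further: potency for compounds that break the NR2E3 corepressor complex and count as activators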
# Nonstructural protein 1 = Nonstructural protein 1 (Influenza A virus, UniProt Q194T2); assay type: functional, Influenza A virus (A/California/07/2009(H1N1))
# Insulin-degrading enzyme [4] = biological target: T1, Insulin-degrading enzyme (Homo sapiens, UniProt P14735); assay: recombinant IDE activation, cell-free – biochemical, fluorescence polarization, counter-screen for IDE activator project, dose response (AID 588681)
# T1 sequence (P14735 whole entry): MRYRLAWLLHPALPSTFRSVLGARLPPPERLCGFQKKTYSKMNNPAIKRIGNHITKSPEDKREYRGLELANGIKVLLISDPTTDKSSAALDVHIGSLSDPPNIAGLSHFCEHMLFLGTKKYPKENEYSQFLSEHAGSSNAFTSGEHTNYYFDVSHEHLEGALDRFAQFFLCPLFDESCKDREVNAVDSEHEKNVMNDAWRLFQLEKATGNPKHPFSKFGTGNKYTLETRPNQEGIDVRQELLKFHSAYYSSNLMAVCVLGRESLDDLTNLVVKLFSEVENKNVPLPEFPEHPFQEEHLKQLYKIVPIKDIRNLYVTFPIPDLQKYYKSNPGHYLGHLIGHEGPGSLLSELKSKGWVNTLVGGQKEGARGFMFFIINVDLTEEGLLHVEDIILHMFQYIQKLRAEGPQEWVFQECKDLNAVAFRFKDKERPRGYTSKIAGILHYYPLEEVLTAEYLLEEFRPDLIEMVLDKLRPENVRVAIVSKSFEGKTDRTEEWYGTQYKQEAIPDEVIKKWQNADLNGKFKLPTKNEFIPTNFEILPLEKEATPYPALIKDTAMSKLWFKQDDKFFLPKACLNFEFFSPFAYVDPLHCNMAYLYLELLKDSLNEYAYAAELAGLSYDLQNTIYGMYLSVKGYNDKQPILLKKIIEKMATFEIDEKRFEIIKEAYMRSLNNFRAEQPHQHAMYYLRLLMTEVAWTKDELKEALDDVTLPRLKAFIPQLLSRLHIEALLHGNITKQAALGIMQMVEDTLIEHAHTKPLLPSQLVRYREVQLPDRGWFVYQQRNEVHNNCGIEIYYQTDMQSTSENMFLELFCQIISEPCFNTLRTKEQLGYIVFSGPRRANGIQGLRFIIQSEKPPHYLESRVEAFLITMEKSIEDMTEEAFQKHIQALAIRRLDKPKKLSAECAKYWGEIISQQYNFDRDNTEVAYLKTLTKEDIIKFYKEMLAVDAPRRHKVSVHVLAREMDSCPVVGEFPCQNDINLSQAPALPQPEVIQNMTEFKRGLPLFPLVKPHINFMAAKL
# [5] = biological target: Peroxisome proliferator-activated receptor gamma/Nuclear receptor corepressor 2 (Homo sapiens, UniProt P37231+Q9Y618); assay type: functional
# [6] = biological target: Ras and Rab interactor 1/Tyrosine-protein kinase ABL1 (Homo sapiens, UniProt P00519+Q13671); assay type: functional;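 further: biochemical TR-FRET dose-response test measuring inhibition of binding between Rin1 and Abl proteins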
# Insulin-degrading enzyme [7] = biological target: T1, Insulin-degrading enzyme; assay: cellular IDE activation of Abeta substrate cleavage – fluorescence polarization, HEK cells, dose response (AID 588439); assay type: functional, cell-based
# [8] = biological target: Mothers against decapentaplegic homolog 3 (Homo sapiens, UniProt P84022); assay: blockers of Smad3 complex formation in lysate – cell lysate, secondary confirmation, chemiluminescent ELISA, HEK293 lysate, dose response (AID 1058); assay type: functional
# Streptococcus = assay: GAS UMAA2166 growth inhibition – luminescence, BacTiterGlo, counter-screen for streptokinase expression inhibitor project, dose response (AID 1915); assay type: functional, organism-based;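 further: potency for reduction of bacterial viability or growth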
# [9] = decrease of insulin promoter-GFP reporter – imaging, high-content screening, mouse beta cells (AID 1628); assay type: functional; conditions: MIN6
# [10] = tested on: Streptococcus sp. 'group A'; assay: Streptococcus pyogenes SK(-)GAS viability under kanamycin – luminescence, BacTiterGlo, confirmation, counter-screen for streptokinase expression inhibitor project, dose response (AID 1900); assay type: functional, organism-based
# [11] = IC50 of Artemis nuclease activity blockers – biochemical, fluorescence intensity, dose response (AID 720701); assay type: functional;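 further: Artemis endonuclease enzyme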
# INS1 = assay: INS-1E survival protection against cytokine death – cell-based, luminescence, retest, dose response (AID 449756); assay type: functional; conditions: Rattus norvegicus;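 further: cell death triggered by IL-1 beta plus TNF-alpha plus IFN-gamma mixture; protective hits raise ATP signal compared with cytokine alone wells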
# [12] = biological target: Serine/threonine-protein phosphatase (Homo sapiens, UniProt Q9BPW0); assay: Counterscreen for inhibitors of PP1: fluorescence-based biochemical high throughput dose response assay to identify inhibitors of Protein Phosphatase 5 (PP5). [Related pubchem assays: 2034 (Summary (PP5 inhibitors)), 1987 (PP5 inhibitors in singlate), 2235 (PP1 inhibitors in singlate)]
# [13] = biological target: Serine/threonine-protein phosphatase PP1-alpha catalytic subunit (Homo sapiens, UniProt P62136); assay: inhibition of protein phosphatase 1 activity – biochemical, fluorescence, dose response (AID 2403);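 further: phosphatase turnover of OMFP into fluorescent 3-O-methylfluorescein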
# [14] = MIN6 cell viability loss – mouse insulinoma, cytotoxicity control, dose response (AID 2122); assay type: functional;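 further: confirmatory high-throughput counterscreen run to flag cytotoxic compounds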
# Phospholipase A2 = Phospholipase A2 (Homo sapiens, UniProt P04054); assay type: functional;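 further: confirmatory dose-response counterscreen on phospholipase A2, testing hits that came from an ultra-high-throughput screen for ATG4B inhibitors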
# [15] = biological target: T2, Probable nicotinate-nucleotide adenylyltransferase (Staphylococcus aureus (strain N315), UniProt P65502); assay type: functional, Staphylococcus aureus subsp. aureus N315; conditions: read-out: IC50_Mean;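 on IC50 Mean: confirmatory dose-response retesting of NadD inhibitor hits first found in an ultra-high-throughput screen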
# [16] = biological target: T2, Probable nicotinate-nucleotide adenylyltransferase; assay type: functional, Staphylococcus aureus subsp. aureus N315
# [17] = antiviral protection against BTV-induced cell death – arbovirus, BSR cells, confirmation (AID 1250); assay type: functional;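 further: protection from viral cytopathic effect measured as cell viability by ATP luminescence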
# Cysteine protease ATG4B = biological target: T3, Cysteine protease ATG4B (Homo sapiens, UniProt Q9Y4P1); assay type: functional;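 further: Fluorescence-based dose-response confirmation assay measuring inhibition of ATG4B activity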
# T3 sequence (Q9Y4P1 whole entry): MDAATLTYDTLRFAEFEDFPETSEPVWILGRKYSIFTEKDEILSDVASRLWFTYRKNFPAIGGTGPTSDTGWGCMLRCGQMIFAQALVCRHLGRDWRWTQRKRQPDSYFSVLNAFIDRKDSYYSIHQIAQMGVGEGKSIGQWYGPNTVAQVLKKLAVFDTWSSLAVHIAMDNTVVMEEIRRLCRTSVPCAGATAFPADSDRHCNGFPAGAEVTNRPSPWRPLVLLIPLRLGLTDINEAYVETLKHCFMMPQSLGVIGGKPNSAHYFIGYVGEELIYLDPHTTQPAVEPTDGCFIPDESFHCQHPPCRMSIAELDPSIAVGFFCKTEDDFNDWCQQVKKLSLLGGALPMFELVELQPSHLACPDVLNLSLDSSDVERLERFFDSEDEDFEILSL
# Cytochrome P450 2D6 = Cytochrome P450 2D6 (Homo sapiens, UniProt P10635); assay: qHTS Assay for Inhibitors and Substrates of Cytochrome P450 2D6. [Related pubchem assays: 410 ]; assay type: ADME; conditions: read-out: Potency
# [18] = biological target: Lytic switch protein BZLF1 (Epstein-Barr virus (strain B95-8) (HHV-4) (Human herpesvirus 4), UniProt P03206); assay: inhibition of BZLF1 ZTA DNA binding – biochemical, fluorescence polarization, Epstein-Barr virus, 1536-well, counter-screen for EBNA-1 inhibitor project, dose response (AID 2377); design: species or system human gammaherpesvirus 4;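 further: fluorescence polarization of Cy5-labelled ZRE DNA probe bound by purified Zta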
# [19] = biological target: Epstein-Barr nuclear antigen 1 (Epstein-Barr virus (strain B95-8) (HHV-4) (Human herpesvirus 4), UniProt P03211); assay: inhibition of EBV nuclear antigen 1 DNA binding – biochemical, fluorescence polarization, 1536-well, dose response (AID 2381); design: species or system human gammaherpesvirus 4;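 further: fluorescence polarization of a Cy5 DNA probe bound by EBNA-1 protein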
# T2 sequence (P65502 whole entry): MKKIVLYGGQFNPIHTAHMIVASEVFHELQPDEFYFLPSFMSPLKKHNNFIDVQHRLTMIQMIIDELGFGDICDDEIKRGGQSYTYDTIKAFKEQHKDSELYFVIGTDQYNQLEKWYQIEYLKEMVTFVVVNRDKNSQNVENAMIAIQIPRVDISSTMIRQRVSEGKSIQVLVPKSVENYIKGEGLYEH
# Lytic switch protein BZLF1, sequence (P03206 whole entry): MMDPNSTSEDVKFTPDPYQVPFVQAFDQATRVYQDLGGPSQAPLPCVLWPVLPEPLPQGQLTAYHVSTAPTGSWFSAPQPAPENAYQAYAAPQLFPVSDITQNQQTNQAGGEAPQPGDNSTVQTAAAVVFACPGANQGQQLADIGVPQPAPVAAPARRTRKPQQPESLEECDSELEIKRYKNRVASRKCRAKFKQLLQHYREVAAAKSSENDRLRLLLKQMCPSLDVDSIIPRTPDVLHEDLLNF
# Nonstructural protein 1, sequence (Q194T2 whole entry): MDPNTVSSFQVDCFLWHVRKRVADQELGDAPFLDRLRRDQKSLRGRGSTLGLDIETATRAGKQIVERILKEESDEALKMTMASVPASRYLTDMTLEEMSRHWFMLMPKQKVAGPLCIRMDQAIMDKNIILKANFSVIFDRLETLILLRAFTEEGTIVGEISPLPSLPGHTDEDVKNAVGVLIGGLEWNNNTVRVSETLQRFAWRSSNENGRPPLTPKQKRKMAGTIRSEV
# Mothers against decapentaplegic homolog 3, sequence (P84022 whole entry): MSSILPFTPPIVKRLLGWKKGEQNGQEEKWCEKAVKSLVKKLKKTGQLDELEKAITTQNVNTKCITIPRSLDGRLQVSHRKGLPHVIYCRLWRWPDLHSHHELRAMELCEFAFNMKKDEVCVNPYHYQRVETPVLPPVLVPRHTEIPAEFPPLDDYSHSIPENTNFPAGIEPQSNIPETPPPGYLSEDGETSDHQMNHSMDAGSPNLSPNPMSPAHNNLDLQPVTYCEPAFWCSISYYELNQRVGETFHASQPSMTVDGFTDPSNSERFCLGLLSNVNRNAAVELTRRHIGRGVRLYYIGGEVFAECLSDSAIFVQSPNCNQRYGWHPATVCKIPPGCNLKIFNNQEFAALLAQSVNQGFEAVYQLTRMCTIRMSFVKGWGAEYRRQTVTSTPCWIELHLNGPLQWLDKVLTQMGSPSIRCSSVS
# Ras and Rab interactor 1/Tyrosine-protein kinase ABL1, sequence (P00519 whole entry): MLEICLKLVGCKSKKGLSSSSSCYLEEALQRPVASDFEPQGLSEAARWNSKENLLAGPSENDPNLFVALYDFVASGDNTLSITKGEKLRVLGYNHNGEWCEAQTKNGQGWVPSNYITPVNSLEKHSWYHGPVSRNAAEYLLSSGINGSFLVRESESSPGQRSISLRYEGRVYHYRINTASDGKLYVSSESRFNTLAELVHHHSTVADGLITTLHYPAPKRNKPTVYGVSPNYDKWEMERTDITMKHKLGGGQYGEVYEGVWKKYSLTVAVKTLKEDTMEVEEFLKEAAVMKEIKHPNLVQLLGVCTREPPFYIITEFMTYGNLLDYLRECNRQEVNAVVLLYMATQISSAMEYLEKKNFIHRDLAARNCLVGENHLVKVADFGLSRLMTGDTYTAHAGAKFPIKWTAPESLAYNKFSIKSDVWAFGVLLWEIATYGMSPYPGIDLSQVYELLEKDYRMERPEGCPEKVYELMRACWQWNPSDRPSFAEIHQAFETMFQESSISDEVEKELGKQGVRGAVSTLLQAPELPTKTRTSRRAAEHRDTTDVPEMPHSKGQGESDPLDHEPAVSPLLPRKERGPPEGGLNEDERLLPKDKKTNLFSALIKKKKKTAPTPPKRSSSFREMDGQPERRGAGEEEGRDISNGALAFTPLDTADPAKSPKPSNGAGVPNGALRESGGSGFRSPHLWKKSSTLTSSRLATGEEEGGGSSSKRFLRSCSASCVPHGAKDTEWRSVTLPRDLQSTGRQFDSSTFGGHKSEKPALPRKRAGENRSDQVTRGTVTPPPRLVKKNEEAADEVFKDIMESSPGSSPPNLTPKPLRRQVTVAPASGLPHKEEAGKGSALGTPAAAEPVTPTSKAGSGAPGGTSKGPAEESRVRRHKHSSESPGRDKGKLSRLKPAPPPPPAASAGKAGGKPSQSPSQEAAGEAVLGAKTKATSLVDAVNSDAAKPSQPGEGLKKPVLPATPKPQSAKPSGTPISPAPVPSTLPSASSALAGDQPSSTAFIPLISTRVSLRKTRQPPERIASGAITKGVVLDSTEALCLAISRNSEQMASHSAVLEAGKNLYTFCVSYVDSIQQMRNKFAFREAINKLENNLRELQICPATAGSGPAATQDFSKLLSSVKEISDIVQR
# Ras and Rab interactor 1/Tyrosine-protein kinase ABL1, sequence (Q13671 whole entry): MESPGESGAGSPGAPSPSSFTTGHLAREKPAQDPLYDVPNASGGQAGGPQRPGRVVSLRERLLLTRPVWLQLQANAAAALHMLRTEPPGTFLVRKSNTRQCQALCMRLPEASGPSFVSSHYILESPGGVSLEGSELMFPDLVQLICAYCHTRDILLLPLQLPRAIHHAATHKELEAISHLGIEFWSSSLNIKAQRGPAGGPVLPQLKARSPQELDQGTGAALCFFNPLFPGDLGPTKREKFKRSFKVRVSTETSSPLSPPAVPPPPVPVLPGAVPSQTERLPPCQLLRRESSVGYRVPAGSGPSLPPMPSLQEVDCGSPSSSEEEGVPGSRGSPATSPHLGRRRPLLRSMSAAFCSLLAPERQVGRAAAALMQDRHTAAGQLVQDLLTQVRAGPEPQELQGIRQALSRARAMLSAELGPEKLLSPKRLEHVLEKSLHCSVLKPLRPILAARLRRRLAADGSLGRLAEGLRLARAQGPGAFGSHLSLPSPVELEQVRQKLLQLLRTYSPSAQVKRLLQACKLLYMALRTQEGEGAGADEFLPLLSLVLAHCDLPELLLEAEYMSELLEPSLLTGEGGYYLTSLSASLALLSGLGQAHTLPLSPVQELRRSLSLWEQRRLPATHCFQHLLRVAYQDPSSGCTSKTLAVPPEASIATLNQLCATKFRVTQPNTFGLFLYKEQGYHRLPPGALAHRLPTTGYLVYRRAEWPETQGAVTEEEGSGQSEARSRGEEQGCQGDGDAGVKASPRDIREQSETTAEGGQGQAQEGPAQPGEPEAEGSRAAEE
# Photoreceptor-specific nuclear receptor, sequence (Q9Y5X4 whole entry): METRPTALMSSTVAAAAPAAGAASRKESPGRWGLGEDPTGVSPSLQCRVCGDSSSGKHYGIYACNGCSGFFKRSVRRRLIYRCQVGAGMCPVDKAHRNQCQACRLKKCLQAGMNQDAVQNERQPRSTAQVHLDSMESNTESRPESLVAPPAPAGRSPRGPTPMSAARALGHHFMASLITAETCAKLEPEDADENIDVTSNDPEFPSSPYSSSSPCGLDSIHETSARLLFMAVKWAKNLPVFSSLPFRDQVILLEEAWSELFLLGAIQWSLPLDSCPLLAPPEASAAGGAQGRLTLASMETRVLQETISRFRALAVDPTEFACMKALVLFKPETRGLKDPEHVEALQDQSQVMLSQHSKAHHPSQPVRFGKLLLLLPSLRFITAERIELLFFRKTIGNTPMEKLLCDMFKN
# Phospholipase A2, sequence (P04054 whole entry): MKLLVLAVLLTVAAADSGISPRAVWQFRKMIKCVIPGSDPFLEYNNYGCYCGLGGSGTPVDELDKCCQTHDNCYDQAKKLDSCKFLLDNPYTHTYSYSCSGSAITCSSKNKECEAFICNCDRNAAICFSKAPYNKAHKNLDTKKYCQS
# Serine/threonine-protein phosphatase PP1-alpha catalytic subunit, sequence (P62136 whole entry): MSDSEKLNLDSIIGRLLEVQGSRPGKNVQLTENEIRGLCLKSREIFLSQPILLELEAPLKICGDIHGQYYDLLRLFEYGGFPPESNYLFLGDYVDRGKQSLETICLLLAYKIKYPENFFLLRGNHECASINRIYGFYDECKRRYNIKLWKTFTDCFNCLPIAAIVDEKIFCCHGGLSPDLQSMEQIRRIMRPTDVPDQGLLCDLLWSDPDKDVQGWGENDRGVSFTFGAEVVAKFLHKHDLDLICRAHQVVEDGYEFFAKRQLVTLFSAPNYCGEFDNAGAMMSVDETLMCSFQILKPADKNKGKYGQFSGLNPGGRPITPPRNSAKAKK
# Serine/threonine-protein phosphatase, sequence (Q9BPW0 whole entry): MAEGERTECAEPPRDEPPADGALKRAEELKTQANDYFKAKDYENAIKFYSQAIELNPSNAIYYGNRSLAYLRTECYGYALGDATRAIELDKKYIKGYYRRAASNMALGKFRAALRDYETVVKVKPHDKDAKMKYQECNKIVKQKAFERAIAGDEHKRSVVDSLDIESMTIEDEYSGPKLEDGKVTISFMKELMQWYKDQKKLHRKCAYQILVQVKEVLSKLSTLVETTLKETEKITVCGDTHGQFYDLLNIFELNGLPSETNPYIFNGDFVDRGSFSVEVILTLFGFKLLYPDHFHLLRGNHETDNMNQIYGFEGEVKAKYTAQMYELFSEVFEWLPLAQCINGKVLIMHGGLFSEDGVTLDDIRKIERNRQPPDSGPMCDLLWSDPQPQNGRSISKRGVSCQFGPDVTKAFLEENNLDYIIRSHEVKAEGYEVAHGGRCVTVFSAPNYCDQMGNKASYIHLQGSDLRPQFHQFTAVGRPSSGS
# Cytochrome P450 2D6, sequence (P10635 whole entry): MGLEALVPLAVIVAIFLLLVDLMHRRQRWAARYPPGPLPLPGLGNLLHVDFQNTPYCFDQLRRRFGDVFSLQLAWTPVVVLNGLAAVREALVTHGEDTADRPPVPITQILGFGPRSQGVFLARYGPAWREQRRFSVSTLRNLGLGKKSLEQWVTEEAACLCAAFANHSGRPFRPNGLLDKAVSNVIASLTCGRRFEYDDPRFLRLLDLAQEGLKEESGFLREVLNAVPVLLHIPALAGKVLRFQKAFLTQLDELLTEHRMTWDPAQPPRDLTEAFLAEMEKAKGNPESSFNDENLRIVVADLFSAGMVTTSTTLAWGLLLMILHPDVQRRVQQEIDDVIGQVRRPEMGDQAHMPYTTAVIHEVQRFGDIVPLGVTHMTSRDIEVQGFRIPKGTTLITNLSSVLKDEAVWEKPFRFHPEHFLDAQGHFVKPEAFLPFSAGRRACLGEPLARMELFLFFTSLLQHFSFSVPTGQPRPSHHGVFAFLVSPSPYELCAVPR
compound,measurement,setting,value
C[C@@H]1NC(=O)N[C@@H]1CCCCCC(=O)O,EC50,HEK293 [1],11.9 µM (inactive)
same,IC50,HEK293 [2],> 89.2 µM (inactive)
same,IC50,[3],0.149 µM (active)
same,IC50,Nonstructural protein 1,1.57 µM (active)
same,EC50,Insulin-degrading enzyme [4],7.41 µM (active)
same,IC50,[5],1.38 µM (active)
same,IC50,[6],0.0101 µM (active)
same,EC50,Insulin-degrading enzyme [7],7.8 µM (active)
Oc1cc2c(cc1C(c1ccc(F)cc1)N1CCCC1)OCO2 (stereo not given),IC50,[8],23.3 µM (not active)
c1ccc(N2CCN(c3nc(-c4ccccn4)nc4ccccc34)CC2)cc1,EC50,Streptococcus,8.15 µM (active)
same,IC50,[9],2.4 µM (active)
same,EC50,[10],0.433 µM (active)
same,IC50,[11],3.59 µM (active)
same,AC50,INS1,3.01 µM (active)
same,IC50,[12],> 22.3 µM (not active)
same,IC50,[13],6.28 µM (active)
same,IC50,[14],1.67 µM (active)
CCc1nnc(NS(=O)(=O)c2ccc(N/C=C\C(=O)c3ccc4ccccc4c3)cc2)s1,IC50,Phospholipase A2,9.13 µM (active)
same,IC50,[15],29.7 µM (active)
same,IC50,[16],5.19 µM (active)
same,IC50,[17],62.9 µM (active)
same,IC50,Cysteine protease ATG4B,11.1 µM (active)
CCN1C(C)=C(C(=O)OC)C(c2ccccc2)N2C(=O)[C@](O)(C(=O)OC)C(c3ccccc3)C(C(=O)c3ccccc3)=C12 (stereo not given in full),AC50,Cytochrome P450 2D6,3.16 µM (inconclusive)
CCOc1ccc(C(=O)NC(=S)Nc2ccc(NC(=O)C(C)C)cc2)cc1[N+](=O)[O-],IC50,[18],> 111 µM (not active)
same,IC50,[19],1.89 µM (active)
